Source: US20220362174A1, “Use of R-enantiomer Beta2-agonists for prevent and treatment of pulmonary inflammation and inflammatory remodeling for reduced adverse effects” (priority 2019, published 2022)
“Also recorded” adds a separate entry of the source.

Legend:
[1] = system: OVA-sensitized/OVA-challenged mice; test: Lung histopathology (H&E, PAS, Masson) after R-, S-, rac-terbutaline; type: in vivo; conditions: for PAS stain of lung tissues: inflammatory and histopathological changes, collagen deposition: Example 3, vs model; for wall thickness of vessels / inflammatory remodeling processes: repeated inhalation, OVA mice; for PAS and Masson staining: subepithelial matrix glycoproteins, goblet cell hyperplasia, collagen deposition: vs OVA group; for smooth muscle hypertrophy, thickness of bronchial and vascular smooth muscle layer: vs OVA-treated mice
Method: (§1) OVA sensitized/challenged asthma model Mice were sensitized and challenged with ovalbumin (OVA) or normal saline. Briefly, mice were sensitized by intraperitoneal (i.p.) injection of 0.2 mL of 2% aluminum hydroxide (ALUM) gel containing 10 μg of OVA antigen on days 0 and 14. On days 21, 22 and 23, the mice were challenged with 1% OVA in saline (0.01 g/mL) for 20 min via. a nebulizer (PART Turbo boy). On day 26, a 20 min nebulized OVA challenge with 5% OVA in saline (0.05 g/mL) was conducted. The control group received 0.2 mL of saline with 2% ALUM administered intraperitoneally on days 0 and 14 before receiving 20 min nebulized normal saline without OVA on days 21, 22, 23 and 26.
Left lung tissue was obtained for histopathology and fixed in 10% formalin for 24 h, followed by paraffin-embedded and then were sectioned at 4 μm for routine staining with hematoxylin and eosin (H&E, Solarbio, Beijing, China), or with periodic acid-Schiff (PAS, Solarbio, Beijing, China), or submitted to Masson's trichrome staining (Baso, Zhuhai, China). Images of the stained lung sections were obtained by an Axisplus image-capturing system (Zeiss, Germany) and then a minimum of 3 bronchi (luminal diameter, 150-500 μm) were analyzed per mice for various parameters using an image analyzing computer system (IPP) by pathologists blinded to grouping. Histological score, airway smooth muscle thickness, PAS score (goblet cells hyperplasia), and collagen deposition were evaluated by a semi-quantitative scoring method.

[2] = system: Th2 cytokines (IL-4, IL-5, IL-13); test: Analysis of cytokine levels in BAL fluid (ELISA); type: in vivo, mice; conditions: for cytokines released (FIG. 3): pretreatment for 7 consecutive days; for IL-5 in BALF / IL-4 release in BALF / IL-13 release in BALF: vs OVA group
Method: as §1
BAL fluid samples were analyzed for the concentrations of mouse IL-4 and IL-5 using commercial ELISA kits according to the manufacturers instructions (R&D Systems, Minneapolis, Minn.). IL-13 was assayed in BAL fluid with a mouse IL-13 immunoassay kit (Abeam, Cambridge, UK) following the manufacturer's protocol.

[3] = system: OVA-sensitized/OVA-challenged mice; test: Whole blood analysis and eosinophils counts in BAL fluid; type: in vivo; conditions: for per cent of eosinophil counts in blood and BALF: OVA asthma mice after repeated inhalation
Method: as §1
After Methacholine challenge, mice were anesthetized, blood was collected for hematology analysis. Part of the collected blood was transferred to a heparinized Eppendorf tube, gently mixed and centrifuged under 845×g at 4° C. for 10 min to isolate plasma specimen for further analysis. Broncho alveolar lavage (BAL) was performed on the right lung using 0.3 mL of phosphate buffered saline (PBS) for four times. The saline was instilled into the lungs and allowed to equilibrate for 30 s before recovery, after centrifugation supernatants were stored at −80° C. for further cytokines analysis while cell pellet was suspended in 0.5 ml PBS and the eosinophils counts were performed using Wright's stain. Then all the organs (liver, right lung lobe, spleen, kidneys, heart, brain) were excised surgically and washed totally with ice-cold PBS to clear the blood and then blotted dry with filter paper. These tissue specimens were then accurately weighted and stored at −80° C. for detecting the drug distribution by LC-MS/MS. White blood cell (WBC) counts and differential WBC counts were analyzed using a ProCyte Dx Hematology Analyzer (IDEXX Laboratories) in 4 h after blood collection.

p38 MAPK = test: Western blot of lung tissue: p38 MAPK phosphorylation; type: in vivo, mice; conditions: vs OVA group
Method: as §1
(§2) Total protein from lung tissue was extracted according to the guidelines of manufacturer (Beyotime, China) and the concentrations were determined by BCA assay (Pierce). Primary antibodies against p38 MAPK (CST #8690), p-p38 MAPK (Thr180/Tyr182, CST #4511), NF-κB p65 (GeneTex #GTX102090), p-NF-κB p65 (S536, CST #3033) and GAPDH (Affinity #AF7021) as a standard were purchased and used.

NF-κB and MARK pathways = test: NF-κB and MARK pathways, cytokines and ROS in LPS sepsis
From the text: LPS interacts with pathogen recognition receptors such as TLRs would also activate NF-κB and MARK pathways, which would further lead to an over-production of cytokines. […] The “cytokine storm” in sepsis involves in excessive release of INFs, IL-1B, IL-2,4,6,10,12, TNFa and MCP etc.
In sepsis, there are also over productions of chemokines such as ROS. […] This invention disclosed the similar effects of other RS-racemic, S-enantiomer or R-enantiomer beta2 agonists including: salbutamol, bambuterol, vilanterol, clenterol, salmeterol, formoterol, trantinterol and Indacaterol and other β2 agonists.

NF-κB p65 = test: Western blot of lung tissue: NF-κB p65 phosphorylation; type: in vivo, mice
Method: as §1, §2

OVA-sIgE = test: Measurement of OVA-sIgE in plasma (ELISA); type: in vivo, mice; conditions: vs OVA group
Method: as §1
OVA-sIgE in plasma was measured using an enzyme-linked immunosorbent assay (ELISA) kit following the manufacturer's specification.

NF-κB = test: mRNA of NF-κB in the lung by quantitative real-time PCR; type: in vivo, mice; conditions: vs OVA group
Method: as §1
The level of mRNA of NF-κB in the lung were analyzed by quantitative real-time PCR analysis. The total RNA was extracted from lung tissue using RNaEX™ Total RNA Isolation Kit (Generay Biotech). The quality and quantity of RNA samples were assessed by NanoDrop ND-2000c spectrophotometer (Thermo Fisher Scientific, Inc., Wilmington, Del.). Total RNA (1 μg) was reverse transcribed into cDNA using cDNA Reverse Transcription Kit (Vazyme Biotech, Nanjing, China) according to the manufacturer's instruction. Real-time PCR reactions were performed using the 7500 real-time-PCR system (Applied Biosystems, Foster City, Calif., USA) with AceQ qPCR SYBR Green Master Mix (Vazyme Biotech, Nanjing, China). […]

[4] = system: OVA-sensitized/OVA-challenged mice; test: Airway responsiveness to methacholine by whole-body plethysmography (Penh) in OVA sensitized/challenged asthma model; type: in vivo; conditions: for airway bronchoconstriction/hyperactivity (Penh) in response to increased doses of Mch: Mch 2, 10, 20 mg/mL aerosol, rac-ter at double dose of R-ter
Method: as §1
In vivo airway responsiveness to methacholine (Mch) was assessed on day 28 in conscious, freely moving, spontaneously breathing mice by a whole-body plethysmography (Buxco Electronics Inc.). Mice were challenged with aerosolized saline or increasing concentrations of Mch (2, 10, 20 mg/mL) administered by an ultrasonic nebulizer for 2 min. Before Mch challenge, a 20 μL drug aerosol or saline was given to the mice because of the short-acting bronchodilating effect of terbutaline. The degree of bronchoconstriction was expressed as enhanced pause (Penh), a calculated dimensionless value that correlates with measurement of airway resistance, impedance, and intrapleural pressure. Penh values were recorded and averaged for 4 min after each nebulization challenge.

BALB/c mice = test: Survival study after LPS challenge (sepsis); type: in vivo
Method: Treatment were given intraperitoneally for 3 consecutive days. One hour after the 3rd day treatments, LPS (15 mg/kg) was administered intraperitoneally. The animals were monitored. Survival rate was then recorded every 12 h for 144 hours.

[5] = 0.5 mg/kg + LPS, Saline + LPS 90.9

| SMILES | PAS stain of lung tissues: inflammatory and histopathological changes, collagen deposition [1] | wall thickness of vessels / inflammatory remodeling processes [1] | PAS and Masson staining: subepithelial matrix glycoproteins, goblet cell hyperplasia, collagen deposition [1] | smooth muscle hypertrophy, thickness of bronchial and vascular smooth muscle layer [1] | cytokines released (FIG. 3) [2] | per cent of eosinophil counts in blood and BALF [3] | p38 MAPK phosphorylation (ratio of phosphorylated to total p38 MAPK) (p38 MAPK) | NF-κB and MARK pathways activated by LPS (expression or phosphorylation) (NF-κB and MARK pathways; LPS sepsis) | ratio of phosphorylated to total p65 NF-κB (NF-κB p65) | OVA-sIgE level in plasma (OVA-sIgE) | NF-κB expression (mRNA transcript) in lung (NF-κB) | airway bronchoconstriction/hyperactivity (Penh) in response to increased doses of Mch [4] | further results |
| --- | --- | --- | --- | --- | --- | --- | --- | --- | --- | --- | --- | --- | --- |
| CC(C)(C)NC[C@H](O)c1cc(O)cc(O)c1 [R-terbutaline] | significantly ameliorate; also recorded: significantly alleviated or improved | significantly diminished | reversed and recovered toward normal | suppressed | significantly inhibited the release | significantly reduced | decreased | significantly inhibited | decreased | markedly inhibited | effectively inhibited | attenuated significantly | degree of inflammatory cell infiltration (H&E, histological score) ([1]; rac-terbutaline at double dose): ameliorated; IL-5 in BALF [2]: significantly inhibited; IL-5 in BALF ([2]; listed as R-ter): significantly reduced; influx of eosinophils into BALF ([3]; OVA asthma mice): significantly inhibited; p38 MAPK phosphorylation (ratio of phosphorylated to total p38 MAPK) (p38 MAPK; listed as R-ter): markedly suppressed; over production of inducible NO (iNO) and another ROS (NF-κB and MARK pathways; LPS sepsis): significantly prevent and inhibit; production or release of cytokines (cytokine storm) (NF-κB and MARK pathways; sepsis): significantly reduced; baseline Penh value (baseline airway reactivity) ([4]; exposure to saline, after 7 days inhalation pretreatment, OVA group 0.80±0.12, Control group 0.55±0.08, rac-terbutaline at double molar amount): significantly reduce; Percent of death after LPS challenges, 12 h (BALB/c mice; 0.5 mg/kg + LPS, Saline + LPS 0): 0%; Percent of death after LPS challenges, 24 h (BALB/c mice; 0.5 mg/kg + LPS, Saline + LPS 36.4): 18.2%; Percent of death after LPS challenges, 36 h (BALB/c mice; 0.5 mg/kg + LPS, Saline + LPS 72.7): 27.3%; Percent of death after LPS challenges, 48 h (BALB/c mice; [5]): 36.4%; Percent of death after LPS challenges, 72 h (BALB/c mice; [5]): 36.4%; Percent of death after LPS challenges, 144 h (BALB/c mice; [5]): 36.4%; rate of mortality/death after LPS challenge (in words) (BALB/c mice; in comparison of LPS challenged group without pretreatment (mortality 90.9%)): greatly reduced or even diminished |
| CC(C)(C)NC[C@@H](O)c1cc(O)cc(O)c1 [S-terbutaline] | further enhanced; also recorded: further worsened | further increase of wall thickness of vessels | further exacerbated | further enhanced | did the opposite | significantly increased; also recorded: significantly higher; also recorded: the highest | enhanced | further enhanced | enhanced | further increase | further enhanced | further exacerbation of airway hyperactivity | IL-4 release in BALF [2]: further increase; IL-13 release in BALF [2]: further increase; IL-4 release in BALF ([2]; listed as S-ter): further increased; IL-13 release in BALF ([2]; listed as S-ter): further increased; p38 MAPK phosphorylation (ratio of phosphorylated to total p38 MAPK) (p38 MAPK; listed as S-ter): further increased; lung compliance ([4]; OVA induced asthma mice, baseline): reduced lung compliances |
